What was measured:
[1] = Solubility in excipients; type: physicochemical; conditions: diverse set of excipients, covering an HLB range of 1 to 20 and above
[2] = Solubility in water; type: physicochemical; conditions: across the whole pH range

solubility in excipients [1]: poorly soluble
solubility in water [2]: practically insoluble in water
Compound: CCc1cc2c(cc1N1CCC(N3CCOCC3)CC1)C(C)(C)c1[nH]c3cc(C#N)ccc3c1C2=O [9-ethyl-6,6-dimethyl-8-(4-morpholin-4-yl-piperidin-1-yl)-11-oxo-6,11-dihydro-5H-benzo[b]carbazole-3-carbonitrile]
